US8658791B2, “2-substituted-6-amino-5-alkyl, alkenyl or alkynyl-4-pyrimidinecarboxylic acids and 6-substituted-4-amino-3-alkyl, alkenyl or alkynyl picolinic acids and their use as herbicides” (Dow AgroSciences, LLC, priority 2007, dated 2014)

Legend:
Type in all cases: in vivo
[1] = system: barnyardgrass (Echinochloa crus-galli); experiment: General postemergence herbicidal activity, ECHCG; details: Echinochloa crus-galli, post-emergence, 336 h, postemergence spray, visual score after 14 days, 0 = no injury, 100 = complete kill, read-out: Post-emergent Weed Control ECHCG; for pest or weed control at 140 g/ha: 140 g ai/ha; for pest or weed control at 280 g/ha: 280 g ai/ha
Description: (§1) Seeds or nutlets of the desired test plant species were planted in Sun Gro MetroMix® 306 planting mixture, which typically has a pH of 6.0 to 6.8 and an organic matter content of about 30 percent, in plastic pots with a surface area of 103 square centimeters. When required to ensure good germination and healthy plants, a fungicide treatment and/or other chemical or physical treatment was applied. The plants were grown for 7-21 days in a greenhouse with an approximate 15 hour photoperiod which was maintained at about 23-29° C. during the day and 22-28° C. during the night. Nutrients and water were added on a regular basis and supplemental lighting was provided with overhead metal halide 1000-Watt lamps as necessary. The plants were employed for testing when they reached the first or second true leaf stage.
(§2) A weighed amount, determined by the highest rate to be tested, of each test compound was placed in a 25 mL glass vial and was dissolved in 4 mL of a 97:3 v/v (volume/volume) mixture of acetone and dimethyl sulfoxide (DMSO) to obtain concentrated stock solutions. […] The concentrated stock solutions obtained were diluted with 20 mL of an aqueous mixture containing acetone, water, isopropyl alcohol, DMSO, Atplus 411F crop oil concentrate, and Triton® X-155 surfactant in a 48.5:39:10:1.5:1.0:0.02 v/v ratio to obtain spray solutions containing the highest application rates. Additional application rates were obtained by serial dilution of 12 mL of the high rate solution into a solution containing 2 mL of 97:3 v/v (volume/volume) mixture of acetone and dimethyl sulfoxide (DMSO) and 10 mL of an aqueous mixture containing acetone, water, isopropyl alcohol, DMSO, Atplus 411F crop oil concentrate, and Triton X-155 surfactant in a 48.5:39:10:1.5:1.0:0.02 v/v ratio to obtain 1/2X, 1/4X, 1/8X and 1/16X rates of the high rate. Compound requirements are based upon a 12 mL application volume at a rate of 187 L/ha. Formulated compounds were applied to the plant material with an overhead Mandel track sprayer equipped with a 8002E nozzles calibrated to deliver 187 L/ha over an application area of 0.503 square meters at a spray height of 18 inches (43 cm) above the average plant canopy height. Control plants were sprayed in the same manner with the solvent blank.
(§3) The treated plants and control plants were placed in a greenhouse as described above and watered by sub-irrigation to prevent wash-off of the test compounds. After 14 days, the condition of the test plants as compared with that of the untreated plants was determined visually and scored on a scale of 0 to 100 percent where 0 corresponds to no injury and 100 corresponds to complete kill.

[2] = system: wild poinsettia (Euphorbia heterophylla); experiment: General postemergence herbicidal activity, EPHHL; details: Euphorbia heterophylla, post-emergence, 336 h, postemergence spray, visual score after 14 days, 0 = no injury, 100 = complete kill, read-out: Post-emergent Weed Control EPHHL; for pest or weed control at 140 g/ha: 140 g ai/ha; for pest or weed control at 280 g/ha: 280 g ai/ha
Description: as §1, §2, §3

[3] = system: velvetleaf (Abutilon theophrasti); experiment: General postemergence herbicidal activity, ABUTH; details: Abutilon theophrasti, post-emergence, 336 h, postemergence spray, visual score after 14 days, 0 = no injury, 100 = complete kill, read-out: Post-emergent Weed Control ABUTH; for pest or weed control at 140 g/ha: 140 g ai/ha; for pest or weed control at 280 g/ha: 280 g ai/ha
Description: as §1, §2, §3

[4] = system: lambsquarter (Chenopodium album); experiment: General postemergence herbicidal activity, CHEAL; details: Chenopodium album, post-emergence, 336 h, postemergence spray, visual score after 14 days, 0 = no injury, 100 = complete kill, read-out: Post-emergent Weed Control CHEAL; for pest or weed control at 140 g/ha: 140 g ai/ha; for pest or weed control at 280 g/ha: 280 g ai/ha
Description: as §1, §2, §3

[5] = system: rice (Oryza sativa); experiment: General postemergence herbicidal activity, ORYSA; details: Oryza sativa, post-emergence, 336 h, postemergence spray, visual score after 14 days, 0 = no injury, 100 = complete kill, read-out: Post-emergent Weed Control ORYSA; for plant injury at 140 g/ha: 140 g ai/ha; for plant injury at 280 g/ha: 280 g ai/ha
Description: as §1, §2, §3

| SMILES | pest or weed control at 140 g/ha [1] [%] | pest or weed control at 140 g/ha [2] [%] | pest or weed control at 140 g/ha [3] [%] | pest or weed control at 140 g/ha [4] [%] | plant injury at 140 g/ha [5] [%] | pest or weed control at 280 g/ha [1] [%] | pest or weed control at 280 g/ha [2] [%] | pest or weed control at 280 g/ha [3] [%] | pest or weed control at 280 g/ha [4] [%] | plant injury at 280 g/ha [5] [%] | further results |
| --- | --- | --- | --- | --- | --- | --- | --- | --- | --- | --- | --- |
| C=C(F)c1c(C(=O)OC)nc(-c2ccc(Cl)cc2)c(F)c1N [Compound 30, 4-Amino-6-(4-chlorophenyl)-5-fluoro-3-(1-fluorovinyl)pyridine-2-carboxylic acid methyl ester] | 0 | 90 | 100 | 100 | 0 |  |  |  |  |  |  |
| COC(=O)c1nc(-c2ccc(Cl)c(OC)c2F)nc(N)c1/C=C/Br [Compound 37, 6-Amino-5-((E)-2-bromovinyl)-2-(4-chloro-2-fluoro-3-methoxyphenyl)pyrimidine-4-carboxylic acid methyl ester] |  |  |  |  |  | 0 | 90 | 80 | 90 | 10 |  |
| C=Cc1c(N)nc(-c2cc(C)c(Cl)cc2F)nc1C(=O)OC [Compound 13, 6-Amino-2-(4-chloro-2-fluoro-5-methylphenyl)-5-vinylpyrimidine-4-carboxylic acid methyl ester] |  |  |  |  |  | 0 | 60 | 90 | 100 | 0 |  |
| C=C(F)c1c(N)nc(-c2ccc(Cl)c(OC)c2F)nc1C(=O)O [Compound 52, 6-Amino-2-(4-chloro-2-fluoro-3-methoxyphenyl)-5-(1-fluorovinyl)pyrimidine-4-carboxylic acid] | 90 | 100 | 95 | 95 | 65 |  |  |  |  |  |  |
| C#Cc1c(N)nc(-c2ccc(Cl)c(OC)c2F)nc1C(=O)OC [Compound 24, 6-Amino-2-(4-chloro-2-fluoro-3-methoxyphenyl)-5-ethynyl-pyrimidine-4-carboxylic acid methyl ester] | 70 | 85 | 80 | 85 | 0 |  |  |  |  |  |  |
| C=Cc1c(N)nc(-c2ccc(Cl)c(C(F)F)c2F)nc1C(=O)OC [Compound 15, 6-Amino-2-(4-chloro-3-difluoromethyl-2-fluorophenyl)-5-vinylpyrimidine-4-carboxylic acid methyl ester] | 100 | 100 | 100 | 100 | 5 |  |  |  |  |  |  |
| COC(=O)c1nc(-c2ccc(Cl)c(OC)c2F)cc(N)c1C [Compound 27, 4-Amino-6-(4-chloro-2-fluoro-3-methoxyphenyl)-3-methyl-pyridine-2-carboxylic acid methyl ester] |  |  |  |  |  | 0 | 100 | 80 | 30 | 0 |  |
| C=Cc1c(N)nc(-c2ccc(Cl)c(N(C)C)c2F)nc1C(=O)O [Compound 51, 6-Amino-2-(4-chloro-3-dimethylamino-2-fluorophenyl)-5-vinylpyrimidine-4-carboxylic acid] | 95 | 90 | 100 | 100 | 60 |  |  |  |  |  |  |
| CCc1c(N)nc(-c2ccc(Cl)c(OC)c2F)nc1C(=O)O [Compound 54, 6-Amino-2-(4-chloro-2-fluoro-3-methoxyphenyl)-5-ethylpyrimidine-4-carboxylic acid] |  |  |  |  |  | 90 | 100 | 90 | 100 | 0 |  |
| COC(=O)c1nc(-c2ccc(Cl)c(OC)c2F)nc(N)c1C=O [Compound 33, 6-Amino-2-(4-chloro-2-fluoro-3-methoxyphenyl)-5-formyl-pyrimidine-4-carboxylic acid methyl ester] |  |  |  |  |  |  |  |  |  |  | pest or weed control at 229 g/ha ([1]; 229 g ai/ha): 0%; pest or weed control at 229 g/ha ([2]; 229 g ai/ha): 100%; pest or weed control at 229 g/ha ([3]; 229 g ai/ha): 80%; pest or weed control at 229 g/ha ([4]; 229 g ai/ha): 50%; plant injury at 229 g/ha ([5]; 229 g ai/ha): 0% |
| COC(=O)c1nc(-c2ccc(Cl)c(OC)c2F)nc(N)c1C(C)F (stereo not drawn) [Compound 39, 6-Amino-2-(4-chloro-2-fluoro-3-methoxyphenyl)-5-(1-fluoroethyl)pyrimidine-4-carboxylic acid methyl ester] | 30 | 85 | 80 | 60 | 0 |  |  |  |  |  |  |
| COC(=O)c1nc(-c2ccc(Cl)c(OC)c2F)nc(N)c1C(F)F [Compound 35, 6-Amino-2-(4-chloro-2-fluoro-3-methoxy-phenyl)-5-difluoromethylpyrimidine-4-carboxylic acid methyl ester] |  |  |  |  |  | 0 | 90 | 75 | 85 | 0 |  |
| COC(=O)c1nc(-c2ccc(Cl)c(OC)c2F)nc(N)c1/C=C/SC [Compound 38, 6-Amino-2-(4-chloro-2-fluoro-3-methoxyphenyl)-5-((E)-2-methylsulfanylvinyl)pyrimidine-4-carboxylic acid methyl ester] |  |  |  |  |  | 60 | 100 | 90 | 100 | 0 |  |
| C=Cc1c(N)nc(-c2ccc(Cl)c(OC(F)F)c2F)nc1C(=O)OC [Compound 17, 6-Amino-2-(4-chloro-3-difluoromethoxy-2-fluorophenyl)-5-vinylpyrimidine-4-carboxylic acid methyl ester] |  |  |  |  |  | 100 | 100 | 100 | 100 | 0 |  |
| COC(=O)c1nc(-c2ccc(Cl)cc2)c(F)c(N)c1C [Compound 25, 4-Amino-6-(4-chlorophenyl)-5-fluoro-3-methylpyridine-2-carboxylic acid methyl ester] |  |  |  |  |  | 0 | 100 | 70 | 100 | 0 |  |
